From PMC2229574 (The Journal of General Physiology, 2003)
Several values for one entry are separate records, joined by “and”; a condition that tells them apart may be missing. Equal values may be shown once. Read-outs that look alike come from different tables or passages of the source.

Experiments:
[1] = biological target: mouse AChR αD97F (Mus musculus, UniProt P02716+P04756+P20782, D117F)
[2] = biological target: mouse AChR β-subunit D97V (Mus musculus, UniProt P02716+P04756+P09690+P20782, D120V); details: 20 mM choline
[3] = biological target: mouse AChR αD97E (Mus musculus, UniProt P02716+P04756+P20782, D117E); details: for L2: kinetic modeling
Chain of mouse AChR αD97E (P04756 21-457 D117E): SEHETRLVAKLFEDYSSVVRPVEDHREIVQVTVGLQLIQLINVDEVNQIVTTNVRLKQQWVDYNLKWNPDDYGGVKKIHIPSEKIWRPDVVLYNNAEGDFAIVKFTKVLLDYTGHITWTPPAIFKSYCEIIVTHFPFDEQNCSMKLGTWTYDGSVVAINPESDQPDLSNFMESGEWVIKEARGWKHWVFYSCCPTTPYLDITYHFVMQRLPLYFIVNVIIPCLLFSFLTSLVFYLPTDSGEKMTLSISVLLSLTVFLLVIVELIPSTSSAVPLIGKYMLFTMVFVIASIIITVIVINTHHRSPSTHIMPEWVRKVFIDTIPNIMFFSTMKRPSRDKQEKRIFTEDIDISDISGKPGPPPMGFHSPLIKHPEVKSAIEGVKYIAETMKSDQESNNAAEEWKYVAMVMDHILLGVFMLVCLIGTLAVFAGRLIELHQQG
Chain of mouse AChR αD97E (P09690 24-501 partner): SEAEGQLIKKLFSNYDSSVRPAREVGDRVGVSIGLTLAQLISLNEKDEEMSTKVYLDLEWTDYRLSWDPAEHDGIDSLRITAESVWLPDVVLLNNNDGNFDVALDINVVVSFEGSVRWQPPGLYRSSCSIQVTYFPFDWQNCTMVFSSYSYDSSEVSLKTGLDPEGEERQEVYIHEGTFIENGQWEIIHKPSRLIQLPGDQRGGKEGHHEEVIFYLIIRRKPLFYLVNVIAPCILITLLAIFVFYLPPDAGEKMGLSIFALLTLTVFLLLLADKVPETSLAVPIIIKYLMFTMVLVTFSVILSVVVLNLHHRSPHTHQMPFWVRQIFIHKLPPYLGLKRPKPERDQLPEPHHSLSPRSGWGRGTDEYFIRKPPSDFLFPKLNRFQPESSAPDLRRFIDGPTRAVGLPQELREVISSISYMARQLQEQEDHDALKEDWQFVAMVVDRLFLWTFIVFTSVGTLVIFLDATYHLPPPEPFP
Chain of mouse AChR αD97E (P02716 25-520): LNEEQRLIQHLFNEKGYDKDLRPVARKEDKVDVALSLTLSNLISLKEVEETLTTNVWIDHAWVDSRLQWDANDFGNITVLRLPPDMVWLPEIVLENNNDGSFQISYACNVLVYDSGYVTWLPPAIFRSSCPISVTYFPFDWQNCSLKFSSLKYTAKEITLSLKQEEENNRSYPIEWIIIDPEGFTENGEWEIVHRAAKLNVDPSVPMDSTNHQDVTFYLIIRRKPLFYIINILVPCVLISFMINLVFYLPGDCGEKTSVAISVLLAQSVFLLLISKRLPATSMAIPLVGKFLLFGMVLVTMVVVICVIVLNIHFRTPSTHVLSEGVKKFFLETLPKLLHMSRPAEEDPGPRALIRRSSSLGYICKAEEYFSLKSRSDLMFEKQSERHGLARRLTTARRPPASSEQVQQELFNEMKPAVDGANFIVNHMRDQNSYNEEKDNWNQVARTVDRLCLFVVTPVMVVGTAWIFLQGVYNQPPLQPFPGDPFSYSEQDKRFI
Chain of mouse AChR αD97E (P20782 21-493, stated change not applied): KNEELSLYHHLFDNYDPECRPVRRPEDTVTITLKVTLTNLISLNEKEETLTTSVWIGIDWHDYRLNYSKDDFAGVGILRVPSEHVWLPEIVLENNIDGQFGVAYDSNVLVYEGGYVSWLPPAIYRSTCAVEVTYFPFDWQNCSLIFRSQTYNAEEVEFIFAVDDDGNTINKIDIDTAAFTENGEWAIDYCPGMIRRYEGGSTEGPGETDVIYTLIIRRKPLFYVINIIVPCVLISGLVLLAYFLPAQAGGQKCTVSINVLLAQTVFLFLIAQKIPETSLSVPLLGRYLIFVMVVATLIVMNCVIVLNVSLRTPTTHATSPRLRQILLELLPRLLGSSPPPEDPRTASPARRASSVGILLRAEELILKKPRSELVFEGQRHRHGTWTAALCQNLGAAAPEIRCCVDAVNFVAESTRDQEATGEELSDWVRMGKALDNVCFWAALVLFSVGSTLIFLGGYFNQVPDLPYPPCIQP

[4] = biological target: mouse AChR ɛ-subunit D97V (Mus musculus, UniProt P02716+P04756+P20782, D117V); details: 20 mM choline
[5] = biological target: mouse AChR αD97H (Mus musculus, UniProt P02716+P04756+P20782, D117H); details: for L2: kinetic modeling
[6] = biological target: mouse AChR αD97Q (Mus musculus, UniProt P02716+P04756+P20782, D117Q)
[7] = biological target: mouse AChR αD97V (Mus musculus, UniProt P02716+P04756+P20782, D117V)
[8] = biological target: mouse AChR αD97G (Mus musculus, UniProt P02716+P04756+P20782, D117G); details: for β2 (diliganded channel opening rate constant): 20 mM choline
[9] = biological target: mouse AChR αD97L (Mus musculus, UniProt P02716+P04756+P20782, D117L)
[10] = biological target: wild-type mouse AChR (α2βδɛ) (Mus musculus, UniProt P02716+P04756+P20782); details: cited from earlier work
[11] = biological target: mouse AChR β-subunit G98V (Mus musculus, UniProt P02716+P04756+P09690+P20782, G121V); details: 20 mM choline
[12] = biological target: mouse AChR ɛ-subunit D97A (Mus musculus, UniProt P02716+P04756+P20782, D117A); details: 20 mM choline
[13] = biological target: mouse AChR αD97A (Mus musculus, UniProt P02716+P04756+P20782, D117A)
Chain of mouse AChR αD97A (P04756 21-457 D117A): as the sequence (P04756 21-457 D117E) above, with E97A counted along it
Chain of mouse AChR αD97A (P09690 24-501 partner): as the sequence (P09690 24-501 partner) above
Chain of mouse AChR αD97A (P02716 25-520): as the sequence (P02716 25-520) above
Chain of mouse AChR αD97A (P20782 21-493, stated change not applied): as the sequence (P20782 21-493, stated change not applied) above

[14] = biological target: mouse AChR β-subunit G98A (Mus musculus, UniProt P02716+P04756+P09690+P20782, G121A); details: 20 mM choline
[15] = choline, Scheme I, listed as Choline
[16] = joint fit choline 1, 2 and 5 mM, Scheme I

- L2-ratio (mut/wt) ([1]; choline): 31.52
- α2* (apparent channel closing rate constant) [2]: 762 s⁻¹
- β2 (channel opening rate constant) [2]: 85 s⁻¹
- β2 from saturation of the effective opening rate ([3]; choline, fit by Eq. 1): 2,875 s^−1
- L2 (equilibrium gating constant) from Popen dose–response analysis ([3]; choline, fit by Eq. 2): 2.9 ± 0.7 and 2.9
- L2 ([3]; choline, Scheme I): 1.3 ± 0.2
- L2 [3, 15]: 1.31 ± 0.21
- α2 [3, 16]: 2,293 ± 214 s^−1
- β2 [3, 16]: 3,024 ± 131 s^−1
- α2* (apparent channel closing rate constant) [4]: 933 s⁻¹
- β2 (channel opening rate constant) [4]: 103 s⁻¹
- L2-ratio (mut/wt) ([5]; choline): 19.94
- L2 (equilibrium gating constant) from Popen dose–response analysis ([5]; choline, fit by Eq. 2): 1.1 ± 0.5
- L2 ([5]; choline, Scheme I): 1.2 ± 0.1
- L2 [5, 15]: 1.15 ± 0.14
- α2 [5, 16]: 2,759 ± 149 s^−1
- β2 [5, 16]: 3,189 ± 168 s^−1
- L2-ratio (mut/wt) ([6]; choline): 62.56
- L2-ratio (mut/wt) ([7]; choline): 1.71
- L2-ratio (mut/wt) ([8]; αD97G kinetic mode G1, choline): 4.20
- L2-ratio (mut/wt) ([9]; choline): 0.71
- α2* (apparent channel closing rate constant) [11]: 471 s⁻¹
- β2 (channel opening rate constant) [11]: 80 s⁻¹
- α2* (apparent channel closing rate constant) [12]: 645 s⁻¹
- β2 (channel opening rate constant) [12]: 64 s⁻¹
- ΔΔG0 for channel gating, 0.59 ln(L2^wt/L2^mut) ([13]; double αD97A mutant, 20 mM choline): 3.09 kcal mol^−1
- L2-ratio (mut/wt) ([13]; αD97A, choline): 168
- L2-ratio (mut/wt) ([13]; αD97A, choline, listed as Choline): 168.50
- α2* (apparent channel closing rate constant) [14]: 861 s⁻¹
- β2 (channel opening rate constant) [14]: 49 s⁻¹
Structure (SMILES): C[N+](C)(C)CCO [choline]
- α2 (diliganded channel closing rate constant) ([1]; 0.4 mM choline): 1,831 s^−1
- β2 (diliganded channel opening rate constant) ([1]; 20 mM choline): 2,748 s^−1
- L2 (diliganded gating equilibrium constant, β2/α2) ([1]; choline): 1.501
- α2 (diliganded channel closing rate constant) ([3]; 0.4 mM choline): 2,076 s^−1
- β2 (diliganded channel opening rate constant) ([3]; 20 mM choline): 2,967 s^−1
- L2 (diliganded gating equilibrium constant, β2/α2) ([3]; choline): 1.429
- α2 (diliganded channel closing rate constant) ([5]; 0.4 mM choline): 1,938 s^−1
- β2 (diliganded channel opening rate constant) ([5]; 20 mM choline): 1,840 s^−1
- L2 (diliganded gating equilibrium constant, β2/α2) ([5]; choline): 0.949
- α2 (diliganded channel closing rate constant) ([6]; 0.4 mM choline): 2,016 s^−1
- β2 (diliganded channel opening rate constant) ([6]; 20 mM choline): 6,006 s^−1
- L2 (diliganded gating equilibrium constant, β2/α2) ([6]; choline): 2.979
- α2 (diliganded channel closing rate constant) ([7]; 0.4 mM choline): 1,974 s^−1
- β2 (diliganded channel opening rate constant) ([7]; 20 mM choline): 161 s⁻¹
- L2 (diliganded gating equilibrium constant, β2/α2) ([7]; choline): 0.082
- α2 (diliganded channel closing rate constant) ([8]; αD97G kinetic mode G1, 0.4 mM choline): 2,105 s^−1
- β2 (diliganded channel opening rate constant) ([8]; αD97G kinetic mode G1): 421 s⁻¹
- L2 (diliganded gating equilibrium constant, β2/α2) ([8]; αD97G kinetic mode G1, choline): 0.200
- β2 (diliganded channel opening rate constant) ([8]; αD97G kinetic mode G2): 570 s⁻¹
- L2 (diliganded gating equilibrium constant, β2/α2) ([8]; αD97G kinetic mode G2, choline): 0.605
- α2 (diliganded channel closing rate constant) ([9]; 0.4 mM choline): 2,684 s^−1
- β2 (diliganded channel opening rate constant) ([9]; 20 mM choline): 91 s⁻¹
- L2 (diliganded gating equilibrium constant, β2/α2) ([9]; choline): 0.034
- choline dissociation from open AChRs (value subtracted from the α2 estimate) ([10]; ref Cymes et al., 2002): 200 s⁻¹
- channel-opening rate constant, times slower than for ACh ([10]; wt AChRs, ref Zhou et al., 1999, Grosman and Auerbach, 2000a): 500 times
- α2 (diliganded channel closing rate constant) ([13]; αD97A, 0.4 mM choline): 1,719 s^−1
- β2 (diliganded channel opening rate constant) ([13]; αD97A, 20 mM choline): 13,793 s^−1
- L2 (diliganded gating equilibrium constant, β2/α2) ([13]; αD97A, choline): 8.023
